Source: US7135466B2 (Kirin Beer Kabushiki Kaisha, priority 1999, dated 2006)
pIC50: −log10 of the molar value.

The compounds below were run against T1, c-kit (Homo sapiens, UniProt P10721) (assay: Inhibitory activity against c-kit autophosphorylation (MO7e cells, h-SCF)). Settings: MO7e cells, 50 ng/ml h-SCF; read-out: c-kit IC50.
T1 construct: MO7e (human megakaryocytic leukemia cell line) which had been arrested for 20 hr; endogenous in cells; host or cells: MO7e human megakaryocytic leukemia cell line
T1 sequence (P10721 26-976): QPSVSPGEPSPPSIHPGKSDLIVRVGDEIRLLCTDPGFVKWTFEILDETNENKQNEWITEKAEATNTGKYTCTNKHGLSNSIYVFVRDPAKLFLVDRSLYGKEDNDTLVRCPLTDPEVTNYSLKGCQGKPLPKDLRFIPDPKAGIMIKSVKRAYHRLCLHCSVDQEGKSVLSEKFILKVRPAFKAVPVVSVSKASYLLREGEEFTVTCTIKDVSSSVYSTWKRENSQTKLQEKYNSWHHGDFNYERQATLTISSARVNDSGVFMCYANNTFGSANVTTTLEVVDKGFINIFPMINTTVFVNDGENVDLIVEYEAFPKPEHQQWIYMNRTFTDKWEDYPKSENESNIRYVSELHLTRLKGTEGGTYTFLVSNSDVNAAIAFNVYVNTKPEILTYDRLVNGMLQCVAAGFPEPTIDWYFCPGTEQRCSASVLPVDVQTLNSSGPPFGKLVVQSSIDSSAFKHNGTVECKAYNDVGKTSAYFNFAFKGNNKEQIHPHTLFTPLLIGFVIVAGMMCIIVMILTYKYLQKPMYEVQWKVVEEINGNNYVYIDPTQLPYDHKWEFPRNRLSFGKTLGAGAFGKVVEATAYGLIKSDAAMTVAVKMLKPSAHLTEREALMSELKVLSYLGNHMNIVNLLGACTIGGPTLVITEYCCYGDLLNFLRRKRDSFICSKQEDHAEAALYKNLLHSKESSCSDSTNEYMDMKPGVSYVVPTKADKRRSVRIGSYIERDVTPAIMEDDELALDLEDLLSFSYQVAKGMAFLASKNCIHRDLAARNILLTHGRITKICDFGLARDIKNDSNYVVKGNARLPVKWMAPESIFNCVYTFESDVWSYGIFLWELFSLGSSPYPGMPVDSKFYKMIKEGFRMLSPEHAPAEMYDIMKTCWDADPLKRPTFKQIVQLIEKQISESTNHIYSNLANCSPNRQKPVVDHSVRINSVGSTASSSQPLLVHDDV
Format: cell-based
How it was run: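 In this cellular autophosphorylation assay, compound-treated MO7e cells (1 hr) were challenged with human stem cell factor at 50 ng/ml for 5 min; detection relied on PY-20 capture and anti-c-kit/HRP immunodetection at 450 nm.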

pIC50 | Structure (SMILES)
7.34 | COc1cc2nccc(Oc3ccc(OCC(=O)Nc4ccc(C)cc4)cc3)c2cc1OC [Example 786, N1-(4-Methylphenyl)-2-{4-[(6,7-dimethoxy-4-quinolyl)oxy]phenoxy}acetamide]
7.08 | COc1cccc(NC(=O)COc2ccc(Oc3ccnc4cc(OC)c(OC)cc34)cc2)c1 [Example 778, N1-(3-Methoxyphenyl)-2-{4-[(6,7-dimethoxy-4-quinolyl)oxy]phenoxy}acetamide]

Same assay, conditions: MO7e cells, h-SCF 50 ng/ml; read-out: c-kit IC50

pIC50 | Structure (SMILES)
6.91 | CCCCOC(=O)Nc1ccc(Oc2ncnc3cc(OC)c(OC)cc23)cc1Cl [Example 345, Butyl N-{2-chloro-4-[(6,7-dimethoxy-4-quinazolinyl)oxy]phenyl}carbamate]
7.47 | C=CCCCOC(=O)Nc1ccc(Oc2ccnc3cc(OC)c(OC)cc23)c(C)c1C [Example 268, 4-Pentenyl N-{4-[(6,7-dimethoxy-4-quinolyl)oxy]-2,3-dimethylphenyl}carbamate]

Structure (SMILES) | pIC50
COc1cc2nccc(Oc3cc(C)c(NC(=O)Oc4ccccc4)cc3C)c2cc1OC [Example 224, Phenyl N-{4-[(6,7-dimethoxy-4-quinolyl)oxy]-2,5-dimethylphenyl}carbamate] | 6.83

Same assay, conditions: MO7e cells, h-SCF stimulation; read-out: c-kit IC50

pIC50 | Structure (SMILES)
6.39 | COc1cc2nccc(Oc3ccc(NC(=S)NC(=O)c4ccc(Cl)cc4)cc3C)c2cc1OC [Example 1111, N-(4-Chlorobenzoyl)-N′-{4-[(6,7-dimethoxy-4-quinolyl)oxy]-3-methylphenyl}thiourea]
6.09 | COc1cc2nccc(Oc3ccc(NC(=S)NC(=O)c4ccc(Br)cc4)cc3Cl)c2cc1OC [Example 980, N-(4-Bromobenzoyl)-N′-{3-chloro-4-[(6,7-dimethoxy-4-quinolyl)oxy]phenyl}thiourea]
6.52 | COc1cc2nccc(Oc3ccc(NC(=S)NC(=O)c4ccc(C)cc4)cc3F)c2cc1OC [Example 970, N-{4-[(6,7-Dimethoxy-4-quinolyl)oxy]-3-fluorophenyl}-N′-(4-methylbenzoyl)thiourea]
6.84 | COc1cc2nccc(Oc3ccc(NC(=S)NC(=O)c4cccc(C(F)(F)F)c4)cc3)c2cc1OC [Example 934, N-{4-[(6,7-Dimethoxy-4-quinolyl)oxy]phenyl}-N′-[3-(trifluoromethyl)benzoyl]thiourea]
6.53 | COc1cc2nccc(Oc3ccc(NC(=S)NC(=O)c4cccc(Br)c4)c(F)c3)c2cc1OC [Example 940, N-(3-Bromobenzoyl)-N′-{4-[(6,7-dimethoxy-4-quinolyl)oxy]-2-fluorophenyl}thiourea]
6.44 | COc1cc2nccc(Oc3ccc(NC(=S)NC(=O)c4ccccc4Br)cc3Cl)c2cc1OC [Example 922, N-(2-Bromobenzoyl)-N′-{3-chloro-4-[(6,7-dimethoxy-4-quinolyl)oxy]phenyl}thiourea]
6.62 | COc1cc2nccc(Oc3ccc(NCCOc4ccccc4C)cc3C)c2cc1OC [Example 876, N-{4-[(6,7-Dimethoxy-4-quinolyl)oxy]-3-methylphenyl}-N-[2-(2-methylphenoxy)ethyl]amine]
6.06 | COc1cc2nccc(Oc3ccc(NC(=S)NC(=O)c4cc(Cl)cc(Cl)c4)cc3Cl)c2cc1OC [Example 1116, N-{3-Chloro-4-[(6,7-dimethoxy-4-quinolyl)oxy]phenyl}-N′-(3,5-dichlorobenzoyl)thiourea]
6.59 | COc1cc2nccc(Oc3ccc(NCCOc4c(OC)cccc4OC)cc3)c2cc1OC [Example 856, N-[2-(2,6-Dimethoxyphenoxy)ethyl]-N-{4-[(6,7-dimethoxy-4-quinolyl)oxy]phenyl}amine]
6.17 | COc1cc2nccc(Oc3ccc(NC(=S)NC(=O)c4ccc(Cl)cc4Cl)cc3Cl)c2cc1OC [Example 1114, N-{3-Chloro-4-[(6,7-dimethoxy-4-quinolyl)oxy]phenyl}-N′-(2,4-dichlorobenzoyl)thiourea]
6.43 | COc1cc2nccc(Oc3ccc(NC(=S)NC(=O)c4cccc(C)c4)cc3Cl)c2cc1OC [Example 947, N-{3-Chloro-4-[(67-dimethoxy-4-quinolyl)oxy]phenyl}-N′-(3-methylbenzoyl)thiourea]
6.13 | COc1cc2nccc(Oc3ccc(NC(=S)NC(=O)c4ccc(F)cc4)cc3)c2cc1OC [Example 961, N-{4-[(6,7-Dimethoxy-4-quinolyl)oxy]phenyl}-N′-(4-fluorobenzoyl)thiourea]
6.26 | COc1cc2nccc(Oc3ccc(NC(=S)NC(=O)c4ccccc4)cc3Cl)c2cc1OC [Example 918, N-Benzoyl-N′-{3-chloro-4-[(6,7-dimethoxy-4-quinolyl)oxy]phenyl}thiourea]
6.87 | COc1cc2nccc(Oc3ccc(NC(=S)NC(=O)c4cccc(Cl)c4)cc3F)c2cc1OC [Example 943, N-(3-Chlorobenzoyl)-N′-{4-[(6,7-dimethoxy-4-quinolyl)oxy]-3-fluorophenyl}thiourea]
6.35 | COc1cc2ncnc(Oc3ccc(NC(=S)NC(=O)c4ccccc4Cl)cc3Cl)c2cc1OC [Example 920, N-(2-Chlorobenzoyl)-N′-{3-chloro-4-[(6,7-dimethoxy-4-quinazolinyl)oxy]phenyl}thiourea]
6.82 | COc1cc2ncnc(Oc3ccc(NCCOc4ccccc4O)cc3)c2cc1OC [Example 874, 2-(2-{4-[(6,7-Dimethoxy-4-quinazolinyl)oxy]anilino}ethoxy)phenol]
7.51 | COc1ccc(OCCNc2ccc(Oc3ccnc4cc(OC)c(OC)cc34)cc2)cc1 [Example 863, N-{4-[(6,7-Dimethoxy-4-quinolyl)oxy]phenyl}-N-[2-(4-methoxyphenoxy)ethyl]amine]

Same assay, conditions: Mo7e, figure in parentheses in −( ); at 1000 nM

inhibition at 1 µM | Structure (SMILES)
25% | COc1cc2nccc(Oc3ccc(NC(=S)NC(=O)c4ccccc4C)c(C)c3C)c2cc1OC [Example 1085, N-{4-[(6,7-Dimethoxy-4-quinolyl)oxy]-2,3-dimethylphenyl}-N′-(2-methylbenzoyl)thiourea]
30% | COc1cc2nccc(Oc3ccc(NC(=S)NC(=O)c4cccc(Cl)c4)c(C)c3C)c2cc1OC [Example 1083, N-(3-Chlorobenzoyl)-N′-{4-[(6,7-dimethoxy-4-quinolyl)oxy]-2,3-dimethylphenyl}thiourea]
27% | COc1cc2nccc(Oc3ccc(NC(=S)NC(=O)c4ccc([N+](=O)[O-])cc4)c(F)c3)c2cc1OC [Example 968, N-{4-[(6,7-Dimethoxy-4-quinolyl)oxy]-2-fluorophenyl}-N′-(4-nitrobenzoyl)thiourea]
42% | COc1cc2nccc(Oc3ccc(NC(=S)NC(=O)c4ccccc4F)cc3Cl)c2cc1OC [Example 921, N-{3-Chloro-4-[(6,7-dimethoxy-4-quinolyl)oxy]phenyl}-N′-(2-fluorobenzoyl)thiourea]
0% | COc1cc2nccc(Oc3ccc(NC(=S)NC(=O)c4c(Cl)cccc4Cl)cc3)c2cc1OC [Example 1118, N-(2,6-Dichlorobenzoyl)-N′-{4-[(6,7-dimethoxy-4-quinolyl)oxy]phenyl}thiourea]
35% | COc1cc2nccc(Oc3ccc(NC(=S)NC(=O)c4ccc([N+](=O)[O-])cc4)cc3)c2cc1OC [Example 962, N-{4-[(6,7-Dimethoxy-4-quinolyl)oxy]phenyl}-N′-(4-nitrobenzoyl)thiourea]
9% | COc1cc2ncnc(Oc3ccc(SCCCCOc4cccc(C)c4)cc3)c2cc1OC [Example 847, 6,7-Dimethoxy-4-(4-{[4-(3-methylphenoxy)butyl]sulfanyl}phenoxy)quinazoline]
18% | COc1cc2nccc(Oc3ccc(NC(=S)NC(=O)c4ccc([N+](=O)[O-])cc4)cc3Cl)c2cc1OC [Example 982, N-{3-Chloro-4-[(6,7-dimethoxy-4-quinolyl)oxy]phenyl}-N′-(4-nitrobenzoyl)thiourea]
7% | COc1cc2nccc(Oc3ccc(NC(=S)NC(=O)N4c5ccccc5CCc5ccccc54)cc3)c2cc1OC [Example 1047, N-[10,11-Dihydro-5H-dibenzo(b,f)azepin-5-ylcarbonyl]-N′-{4-[(6,7-dimethoxy-4-quinolyl)oxy]phenyl}thiourea]
18% | COc1cc2nccc(Oc3ccc(NC(=S)NC(=O)c4cccc(Cl)c4)c(C)c3)c2cc1OC [Example 1100, N-(3-Chlorobenzoyl)-N′-{4-[(6,7-dimethoxy-4-quinolyl)oxy]-2-methylphenyl}thiourea]
31% | COc1cc2ncnc(Oc3ccc(NC(=S)NC(=O)c4ccc(Cl)cc4)cc3)c2cc1OC [Example 985, N-(4-Chlorobenzoyl)-N′-{4-[(6,7-dimethoxy-4-quinazolinyl)oxy]phenyl}thiourea]
25% | COc1cc2nccc(Oc3ccc(NC(=S)NC(=O)c4cccc(C)c4)c(C)c3C)c2cc1OC [Example 1079, N-{4-[(6,7-Dimethoxy-4-quinolyl)oxy]-2,3-dimethylphenyl}-N′-(3-methylbenzoyl)thiourea]
27% | COc1ccc(C(=O)NC(=S)Nc2ccc(Oc3ccnc4cc(OC)c(OC)cc34)cc2)c(OC)c1 [Example 1119, N-(2,4-Dimethoxybenzoyl)-N′-{4-[(6,7-dimethoxy-4-quinolyl)oxy]phenyl}thiourea]
32% | COc1cc2nccc(Oc3ccc(NC(=S)NC(=O)c4ccccc4OC)c(F)c3)c2cc1OC [Example 909, N-{4-[(6,7-Dimethoxy-4-quinolyl)oxy]-2-fluorophenyl}-N′-(2-methoxybenzoyl)thiourea]

Same assay, conditions: Mo7e, figure within parentheses in −( ) or >1000( ); at 1000 nM

inhibition at 1 µM | Structure (SMILES)
23% | C#CCC(CC)OC(=O)Nc1ccc(Oc2ncnc3cc(OC)c(OC)cc23)cc1OC (centres unmarked) [Example 502, 1-Ethyl-3-butynyl N-{4-[(6,7-dimethoxy-4-quinazolinyl)oxy]-2-methoxyphenyl}carbamate]
29% | COc1cc2nccc(Oc3ccc(NC(=O)NN4CCCCC4)c(F)c3)c2cc1OC [Example 613, N-{4-[(6,7-Dimethoxy-4-quinolyl)oxy]-2-fluorophenyl}-N′-(1-piperidinyl)urea]
